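Values below derive from 48-hour exposures of cells grown in 96-well plates, with endpoints linearly interpolated between the two concentrations bracketing the appropriate inhibition level. TGI: concentration producing complete growth inhibition.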
Legend:
Assay in all cases: growth of human tumour cells (NCI), 48 h
U251 CNS = tested on: U251 CNS
MDA-MB-231 breast = tested on: MDA-MB-231 breast
MALME-3M melanoma = tested on: MALME-3M melanoma
MDA-MB-435 = tested on: MDA-MB-435
OVCAR-5 ovarian = tested on: OVCAR-5 ovarian
HS 578T breast = tested on: HS 578T breast
MOLT-4 leukemia = tested on: MOLT-4 leukemia
SNB-19 CNS = tested on: SNB-19 CNS
SF-539 CNS = tested on: SF-539 CNS
HL-60(TB) leukemia = tested on: HL-60(TB) leukemia
RPMI-8226 leukemia = tested on: RPMI-8226 leukemia
OVCAR-4 ovarian = tested on: OVCAR-4 ovarian

Row | SMILES | TGI (U251 CNS) [µM] | TGI (MDA-MB-231 breast) [µM] | TGI (MALME-3M melanoma) [µM] | TGI (MDA-MB-435) [µM] | TGI (OVCAR-5 ovarian) [µM] | TGI (HS 578T breast) [µM] | TGI (MOLT-4 leukemia) [µM] | TGI (SNB-19 CNS) [µM] | TGI (SF-539 CNS) [µM] | TGI (HL-60(TB) leukemia) [µM] | TGI (RPMI-8226 leukemia) [µM] | TGI (OVCAR-4 ovarian) [µM]
1 | O/N=C1\CCc2cc3c(cc21)CCC3 | > 100 | > 100 | > 100 | > 100 | > 100 | > 100 | > 100 | > 100 | > 100 | > 100 | > 100 | > 100
2 | CCSC(=O)/C=C1\CN(C(=O)OC(C)(C)C)C1C(=O)OC(C)(C)C (stereo not given) | 19.2 | 12.7 | 4.42 | 8.63 | 14.3 | 19.4 | 4.18 | 25.5 | 7.51 | 4.42 | 4.77 | 7.44
3 | O=Cc1ccc(-c2cccc([N+](=O)[O-])c2)s1 | > 100 | > 100 |  | > 100 | > 100 | > 100 | > 100 | > 100 | > 100 | > 100 | > 100 | > 100
4 | CC(=O)N1N=C(c2c(O)ccc3ccccc23)CC1c1ccc(Cl)cc1 (stereo not given) | 63.1 | 43.5 | 76.8 | 51.9 | 58 | 45.1 | 31 |  | 37.4 |  | 45.8 | > 100
5 | CN1CCN(CCCCN2c3ccccc3Sc3ccc(N=[N+]=[N-])cc32)CC1 | 16.9 | 15 | 6.39 | 3.94 | 22.8 | 30.7 | 7.24 | 33.6 | 20.4 | 3.69 | 5.61 | 23.6
6 | COc1cc(C2(O)c3ccccc3C3=NCCN32)cc(OC)c1OC (stereo not given) | > 100 | > 100 |  | > 100 |  | > 100 | > 100 | > 100 |  | > 100 | > 100 | > 100
7 | Cc1ccc(S(=O)(=O)NC2=NS(=O)(=O)c3cc(C)c(Cl)cc3S2)cc1 | > 100 | > 100 | > 100 | > 100 | > 100 | > 100 | > 100 | > 100 | > 100 | > 100 | > 100 | > 100
8 | COC(=O)CCC(C)C1CCC2C3CCC4CC5CCC4(C)C3(O5)C(Br)C(Br)C12C (stereo not given) | > 100 | > 100 | > 100 | > 100 | > 100 | > 100 | > 100 | > 100 | > 100 | > 100 | > 100 | > 100
9 | CCN1C[C@]2(C)CC[C@H](OCc3ccccc3)C34C5C[C@@H]6CC[C@](O)(C(C[C@@H]32)C14)C5[C@H]6OCc1ccccc1 (stereo not given in full) | > 100 | > 100 | > 100 | > 100 | > 100 | > 100 | > 100 | > 100 | > 100 |  | > 100 | > 100
10 | O=[N+]([O-])/C=C/COCc1cc2c(cc1Br)OCO2 | 30.7 | 33 |  | 27.1 | 34.3 | 50.3 | > 100 |  | 63.6 |  | > 100 | 36.7
